Test [1] has as its target HCV NS3 protease genotype 3a (3A-1) (Hepatitis C virus genotype 3a, UniProt Q81258). Briefly: HCV NS3 protease time-resolved fluorescence (TRF) assay, genotype 3a. It counts as biochemical. The settings on record: Ki 3a. The essentials:
(§1)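 Inhibitor titrations are mixed with NS3/NS4A in pH 7.5 HEPES buffer containing 10 mM DTT and 15% glycerol for 10 min before substrate (25 nM final) is added. After 6 h at room temperature, delayed fluorescence is read and fitted to a four-parameter curve for IC50.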

The target in test [2] is T1, HCV genotype 1b (BK) NS3 modified enzyme with a R155K mutation (Hepatitis C virus genotype 1b, UniProt P26663, R1181K).
T1 construct: HCV genotype 1b (BK) NS3 modified enzyme
Briefly: HCV NS3 protease time-resolved fluorescence (TRF) assay, genotype 1b R155K. It counts as biochemical. The note with it: Ki 1b R155K, genotype 1b (BK) NS3 R155K; single value. The essentials:
as §1

In general, Ki refers to a measure of affinity in units of concentration, obtained from inhibition or displacement. Low readings indicate a stronger hold on the target, high ones a looser hold on the target. As for `C=C[C@@H]1C[C@]1(NC(=O)[C@@H]1C[C@@H]2CN1C(=O)[C@H](C(C)(C)C)NC(=O)O[C@@H]1CCC[C@H]1CC/C=C/Cc1c(nc3ccccc3c1OCCCN1CCOCC1)O2)C(=O)NS(=O)(=O)C1(C)CC1` [Example 91, (3aR,7S,10S,12R,21E,24aS)-7-tert-butyl-N-[(1R,2S)-2-ethenyl-1-{[(1-methylcyclopropyl)sulfonyl]carbamoyl}cyclopropyl]-19-[3-(morpholin-4-yl)propoxy]-5,8-dioxo-1,2,3,3a,5,6,7,8,11,12,20,23,24,24a-tetradecahydro-10H-9,12-methanocyclopenta[18,19][1,10,3,6] dioxadiazacyclononadecino[11,12-b] quinoline-10-carboxamide], the Ki is 1 nM in test [1] and 0.16 nM in test [2].

On to `C=C[C@@H]1C[C@]1(NC(=O)[C@@H]1C[C@@H]2CN1C(=O)[C@H](C1CCCC1)NC(=O)O[C@@H]1CCC[C@H]1CC/C=C/Cc1c(nc3ccccc3c1OCCCN1CCCC(C)(C)C1)O2)C(=O)NS(=O)(=O)C1CC1` [Example 92, (3aR,7S,10S,12R,21E,24aS)-7-cyclo pentyl-N-{(1R,2S)-1-[(cyclopropylsulfonyl)carbamoyl]-2-ethenylcyclopropyl}-19-[3-(3,3-dimethylpiperidin-1-yl)propoxy]-5,8-dioxo-1,2,3,3a,5,6,7,8,11,12,20,23,24,24a-tetradeca hydro-10H-9,12-methano-cyclopenta[18,19][1,10,3,6]dioxa diazacyclononadecino[11,12-b] quinoline-10-carboxamide], for which the results for the Ki in test [1] and in test [2] were 19 nM and 1.6 nM, respectively.

Turning to `C=C[C@@H]1C[C@]1(NC(=O)[C@@H]1C[C@@H]2CN1C(=O)[C@H](C1CCCC1)NC(=O)O[C@@H]1CCC[C@H]1CC/C=C/Cc1c(nc3ccccc3c1OC(=O)NC(C)C)O2)C(=O)NS(=O)(=O)C1CC1` [Example 93, (3aR,7S,10S,12R,21E,24aS)-7-cyclopentyl-10-({(1R,2S)-1-[(cyclopropylsulfonyl)carbamoyl]-2-ethenylcyclopropyl}carbamoyl)-5,8-dioxo-1,2,3,3a,5,6,7,8,11,12,20,23,24,24a-tetradecahydro-10H-9,12-methanocyclopenta[18,19][1,10,3,6]dioxadiazacyclononadecino[11,12-b]quinolin-19-yl propan-2-ylcarbamate], the inhibitory constant (Ki) in test [1] is 2.8 nM; in test [2], 0.26 nM.

On to `C=C[C@@H]1C[C@]1(NC(=O)[C@@H]1C[C@@H]2CN1C(=O)[C@H](C1CCCC1)NC(=O)O[C@@H]1CCC[C@H]1CC/C=C/Cc1c(nc3ccccc3c1OCCCN)O2)C(=O)NS(=O)(=O)C1CC1` [Example 94, (3aR,7S,10S,12R,21E,24aS)-19-(3-aminopropoxy)-7-cyclopentyl-N-{(1R,2S)-1-[(cyclopropylsulfonyl)carbamoyl]-2-ethenylcyclopropyl}-5,8-dioxo-1,2,3,3a,5,6,7,8,11,12,20,23,24,24a-tetradecahydro-10H-9,12-methanocyclopenta[18,19][1,10,3,6]dioxadiazacyclononadecino[11,12-b]quinoline-10-carboxamide], for which the Ki in test [1] was 0.59 nM; in test [2], 0.093 nM.

Consider `C=C[C@@H]1C[C@]1(NC(=O)[C@@H]1C[C@@H]2CN1C(=O)[C@H](C1CCCC1)NC(=O)O[C@@H]1CCC[C@H]1CC/C=C/Cc1c(nc3ccccc3c1OCCCOP(=O)(O)O)O2)C(=O)NS(=O)(=O)C1CC1` [Example 95, 3-{[(3aR,7S,10S,12R,21E,24aS)-7-cyclopentyl-10-({(1R,2S)-1-[(cyclopropylsulfonyl)carbamoyl]-2-ethenylcyclopropyl}carbamoyl)-5,8-dioxo-1,2,3,3a,5,6,7,8,11,12,20,23,24,24a-tetradecahydro-10H-9,12-methanocyclopenta[18,19][1,10,3,6]dioxadiazacyclononadecino[11,12-b]quinolin-19-yl]oxy}propyl dihydrogen phosphate], for which the Ki was found to be 1 nM in test [1] and 0.18 nM in test [2].

Regarding `C=C[C@@H]1C[C@]1(NC(=O)[C@@H]1C[C@@H]2CN1C(=O)[C@H](C(C)(C)C)NC(=O)O[C@@H]1CCC[C@H]1CCCCCc1c(nc3ccccc3c1OCCCN1CCCCC1)O2)C(=O)NS(=O)(=O)C1(COC)CC1` [Example 96, (3aR,7S,10S,12R,24aR)-7-tert-butyl-N-[(1R,2S)-2-ethenyl-1-({[1-(methoxymethyl)cyclopropyl]sulfonyl}carbamoyl)cyclopropyl]-5,8-dioxo-19-[3-(piperidin-1-yl)propoxy]-1,2,3,3a,5,6,7,8,11,12,20,21,22,23,24,24a-hexadecahydro-10H-9,12-methanocyclopenta[18,19][1,10,3,6]dioxadiazacyclononadecino[11,12-b]quinoline-10-carboxamide], the Ki is 0.78 nM in test [1] and 0.15 nM in test [2].

With `C=C[C@@H]1C[C@]1(NC(=O)[C@@H]1C[C@@H]2CN1C(=O)[C@H](C(C)(C)C)NC(=O)O[C@@H]1CCC[C@H]1CCCCCc1c(nc3ccccc3c1OCCCN(C)C)O2)C(=O)NS(=O)(=O)C1(COC)CC1` [Example 97, (3aR,7S,10S,12R,24aR)-7-tert-butyl-19-[3-(dimethyl-amino)propoxy]-N-[(1R,2S)-2-ethenyl-1-({[1-(methoxymethyl)cyclopropyl]sulfonyl}carbamoyl)cyclopropyl]-5,8-dioxo-1,2,3,3a,5,6,7,8,11,12,20,21,22,23, 24,24a-hexadecahydro-10H-9,12-methanocyclopenta[18,19] [1,10,3,6]dioxadiaza-cyclononadecino [11,12,-b]quinoline-10-carboxamide], the results for the Ki in test [1] and in test [2] were 73 nM and 0.08 nM, respectively.

Regarding `C=C[C@@H]1C[C@]1(NC(=O)[C@@H]1C[C@@H]2CN1C(=O)[C@H](C(C)(C)C)NC(=O)O[C@@H]1CCC[C@H]1CCCCCc1c(nc3ccccc3c1OCCCN1CCOCC1)O2)C(=O)NS(=O)(=O)C1CC1` [Example 98, (3aR,S,10S,12R,24aR)-7-tert-butyl-N-{(1R,2S)-1-[(cyclopropyl-sulfonyl)carbamoyl]-2-ethenylcyclopropyl}-19-[3-(morpholin-4-yl)propoxy]-5,8-dioxo-1,2,3,3a,5,6,7,8,11,12,20,21,22,23, 24,24a-hexadecahydro-10H-9,12-methanocyclopenta [18,19][1,10,3,6]dioxadiazacyclo-nonadecino[11,12-b]quinoline-10-carboxamide], the Ki in test [1] was found to be 2.9 nM; in test [2], 0.18 nM.

With `C=C[C@@H]1C[C@]1(NC(=O)[C@@H]1C[C@@H]2CN1C(=O)[C@H](C(C)(C)C)NC(=O)O[C@]1(C)C[C@H]1CCCCCc1c(nc3ccccc3c1OCCN1CCOCC1)O2)C(=O)NS(=O)(=O)C1(COC)CC1` [Example 99, (1aR,5S,8S,10R,22aR)-5-tert-butyl-N-[(1R,2S)-2-ethenyl-1-({[1-(methoxymethyl)cyclopropyl]sulfonyl}carbamoyl)cyclopropyl]-1a-methyl-17-[2-(morpholin-4-yl)ethoxy]-3,6-dioxo-1,1a, 3,4,5,6,9,10,18,19,20,21,22,22a-tetradecahydro-8H-7,10-methano-cyclopropa[18,19][1,10,3,6] dioxadiazacyclononadecino [11,12-b]quinoline-8-carboxamide], the values for the Ki in test [1] and in test [2] were 2.8 nM and 0.28 nM, respectively.

Turning to `C=C[C@@H]1C[C@]1(NC(=O)[C@@H]1C[C@@H]2CN1C(=O)[C@H](C(C)(C)C)NC(=O)O[C@]1(C)C[C@H]1CCCCCc1c(nc3ccccc3c1OCCN1CCOCC1)O2)C(=O)NS(=O)(=O)C1CC1` [Example 100, (1aR,5S,8S,10R,22aR)-5-tert-butyl-N-{(1R,2S)-1-[(cyclopropylsulfonyl)carbamoyl]-2-ethenylcyclopropyl}-1a-methyl-17-[2-(morpholin-4-yl)ethoxy]-3,6-dioxo-1,1a,3,4,5,6,9, 10,18,19,20,21,22,22a-tetradecahydro-8H-7,10-methanocyclopropa[18,19] [1,10,3,6]dioxadiazacyclonona decino[11,12-b]quinoline-8-carboxamide], the values for the Ki in test [1] and in test [2] were 2 nM and 0.24 nM, respectively.

Turning to `C=C[C@@H]1C[C@]1(NC(=O)[C@@H]1C[C@@H]2CN1C(=O)[C@H](C(C)(C)C)NC(=O)O[C@]1(C)C[C@H]1CCCCCc1c(nc3ccccc3c1OCCN1CCOCC1)O2)C(=O)NS(=O)(=O)C1(C)CC1` [Example 101, (1aR,5S,8S,10R,22aR)-5-tert-butyl-N-[(1R,2S)-2-ethenyl-1-{[(1-methylcyclopropyl)sulfonyl]carbamoyl}cyclopropyl]-1a-methyl-17-[2-(morpholin-4-yl)ethoxy]-3,6-dioxo-1,1,a, 3,4,5,6,9,10,18,19,20,21,22,22a-tetradecahydro-8H-7,10-methano-cyclopropa[18,19][1,10,3,6]dioxa diazacyclononadecino[11,12-b] quinoline-8-carboxamide], the Ki amounted to 0.96 nM in test [1] and 0.09 nM in test [2].

Take `C=C[C@@H]1C[C@]1(NC(=O)[C@@H]1C[C@@H]2CN1C(=O)[C@H](C(C)(C)C)NC(=O)O[C@@H]1CCC[C@H]1CCCCCc1c(nc3ccccc3c1OCCN1CCCC1)O2)C(=O)NS(=O)(=O)C1(COC)CC1` [Example 102, (3aR,7S,10S,12R,24aR)-7-tert-butyl-N-[(1R,2S)-2-ethenyl-1-({[1-(methoxymethyl)cyclopropyl]sulfonyl}carbamoyl)cyclopropyl]-5,8-dioxo-19-[2-(pyrrolidin-1-yl)ethoxy]-1,2,3,3a, 5,6,7,8,11,12,20,21,22,23,24,24a-hexadecahydro-10H-9,12-methanocyclopenta[18,19] [1,10,3,6]dioxadiazacyclo-nonadecino[11,12-b]quinoline-10-carboxamide]: the results for the Ki in test [1] and in test [2] were 3.2 nM and 0.21 nM, respectively.

The values above are taken from patent publication US9328138B2 (priority 2011, dated 2016).
